According to BindingDB's records for doi:10.1074/jbc.M804990200 (Harvard Medical School, 2008):

Experiments:
Assay in all cases: Continuous Assay
[1] = target: Dihydroorotate dehydrogenase (quinone), mitochondrial (Homo sapiens, UniProt Q02127)
Procedure: (§1) Assay was determined using a continuous assay.

[2] = target: T1, Dihydroorotate dehydrogenase (quinone), mitochondrial (Plasmodium falciparum, UniProt Q54A96)
T1 sequence (Q54A96 whole entry): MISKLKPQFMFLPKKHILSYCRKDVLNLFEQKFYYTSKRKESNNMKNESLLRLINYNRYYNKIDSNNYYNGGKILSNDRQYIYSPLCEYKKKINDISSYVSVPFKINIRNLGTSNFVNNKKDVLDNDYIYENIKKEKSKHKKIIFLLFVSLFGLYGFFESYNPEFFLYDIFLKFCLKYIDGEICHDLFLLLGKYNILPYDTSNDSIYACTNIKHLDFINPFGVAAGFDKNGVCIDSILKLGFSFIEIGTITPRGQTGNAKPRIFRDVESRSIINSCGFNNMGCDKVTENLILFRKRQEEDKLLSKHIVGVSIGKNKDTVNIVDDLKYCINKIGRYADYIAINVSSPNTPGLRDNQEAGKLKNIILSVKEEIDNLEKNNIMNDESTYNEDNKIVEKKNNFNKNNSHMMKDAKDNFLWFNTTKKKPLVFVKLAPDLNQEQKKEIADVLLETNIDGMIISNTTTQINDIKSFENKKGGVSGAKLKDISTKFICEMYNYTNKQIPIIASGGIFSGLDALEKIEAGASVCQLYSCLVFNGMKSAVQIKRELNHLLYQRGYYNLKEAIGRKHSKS
Procedure: as §1

[3] = target: T2, Dihydroorotate dehydrogenase (quinone), mitochondrial [100-517] (Plasmodium berghei (strain Anka), UniProt A0A509AEH5)
T2 construct: 100-517
T2 sequence (A0A509AEH5 whole entry): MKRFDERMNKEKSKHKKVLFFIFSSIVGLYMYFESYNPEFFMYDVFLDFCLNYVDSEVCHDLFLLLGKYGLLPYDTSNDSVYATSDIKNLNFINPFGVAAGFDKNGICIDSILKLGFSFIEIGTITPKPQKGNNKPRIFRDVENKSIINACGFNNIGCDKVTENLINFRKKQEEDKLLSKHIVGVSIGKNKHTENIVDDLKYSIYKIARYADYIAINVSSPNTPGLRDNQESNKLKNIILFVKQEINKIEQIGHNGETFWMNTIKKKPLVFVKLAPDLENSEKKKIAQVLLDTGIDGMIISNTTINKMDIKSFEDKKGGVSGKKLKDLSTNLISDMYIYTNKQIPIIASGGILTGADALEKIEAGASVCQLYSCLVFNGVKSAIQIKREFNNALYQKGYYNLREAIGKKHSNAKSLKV
Procedure: as §1

[4] = target: T3, Dihydroorotate dehydrogenase (quinone), mitochondrial (Plasmodium vivax (strain Salvador I), UniProt A5K1N1)
T3 sequence (A5K1N1 whole entry): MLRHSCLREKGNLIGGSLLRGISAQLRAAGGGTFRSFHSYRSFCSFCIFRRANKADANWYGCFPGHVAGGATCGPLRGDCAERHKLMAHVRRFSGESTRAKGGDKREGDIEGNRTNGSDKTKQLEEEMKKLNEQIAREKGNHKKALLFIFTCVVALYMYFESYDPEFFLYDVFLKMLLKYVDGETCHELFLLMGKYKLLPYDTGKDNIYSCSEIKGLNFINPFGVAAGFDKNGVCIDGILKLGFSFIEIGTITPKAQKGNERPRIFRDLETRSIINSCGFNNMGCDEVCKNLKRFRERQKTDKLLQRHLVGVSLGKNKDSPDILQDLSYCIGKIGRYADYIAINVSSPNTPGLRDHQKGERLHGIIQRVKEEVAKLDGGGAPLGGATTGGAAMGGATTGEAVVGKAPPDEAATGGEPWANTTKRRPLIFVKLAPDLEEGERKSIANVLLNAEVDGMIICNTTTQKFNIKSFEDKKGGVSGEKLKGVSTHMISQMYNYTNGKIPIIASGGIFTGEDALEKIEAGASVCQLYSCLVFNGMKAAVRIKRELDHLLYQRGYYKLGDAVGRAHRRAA
Procedure: as §1

Chain of Dihydroorotate dehydrogenase (quinone), mitochondrial (Homo sapiens, UniProt Q02127) (Q02127 whole entry): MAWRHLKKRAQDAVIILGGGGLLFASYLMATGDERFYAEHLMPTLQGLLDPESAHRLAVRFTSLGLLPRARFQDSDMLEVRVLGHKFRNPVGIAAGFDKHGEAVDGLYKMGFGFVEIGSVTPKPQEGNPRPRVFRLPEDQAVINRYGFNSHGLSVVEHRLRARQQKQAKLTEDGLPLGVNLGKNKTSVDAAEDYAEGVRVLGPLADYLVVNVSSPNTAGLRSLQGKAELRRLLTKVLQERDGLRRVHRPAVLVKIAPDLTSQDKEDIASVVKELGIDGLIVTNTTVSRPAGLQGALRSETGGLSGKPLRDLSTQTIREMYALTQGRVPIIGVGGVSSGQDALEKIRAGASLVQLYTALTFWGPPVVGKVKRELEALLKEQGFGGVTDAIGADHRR

Structure (SMILES)	IC50 [1] [nM]	IC50 [2] [nM]	IC50 [3] [nM]	IC50 [4] [nM]
CCCNC(=O)c1ccc(-n2c(C)cc3ccccc32)s1 [US8703811, 1]	> 30000	420	–	–
Cc1ccccc1/C=C/c1cc(O)c2ccccc2n1 [US8703811, 2]	> 30000	930	560	5600
CCCCCC1CCCc2c1nc1ccccc1c2O (centres undefined) [US8703811, 3]	> 30000	340	110	510
O=C(NC1CC1)c1ccc(N2CCSc3ccccc32)s1 [US8703811, 5]	–	250	–	–
CCOC(=O)c1[nH]c(C)c(Cc2ccc(OCC)cc2)c1C [US8703811, 6]	> 30000	83	60	–
